Holding throughout (assay type): cell-based
Experiment [1] concerns Propionibacterium acnes. Put plainly: Comparative MIC study with epidermin. The text has this: In a comparative study with epidermin or Propionibacterium acnes the following MIC values were obtained: […]
The subject of experiment [2] is St. epidermidis ATCC 12228. Put plainly: MIC in liquid BF medium. As to the method: (§1) Minimal inhibitory concentrations (MIC, Table 1) were determined in liquid BF medium of the following composition: sodium lactate 0.5%, sodium sulfate 0.5%, potassium dihydrogenphosphate 0.05%, dipotassium hydrogenphosphate 0.15%, magnesium chloride 0.02%, ammonium chloride 0.05%, glucose 1%; supplemented (per ml) with Ca-pantothenate 50 μg, folic acid 0.25 μg, niacin 50 μg, p-aminobenzoic acid 25 μg, pyridoxal hydrochloride 50 μg and riboflavin 25 μg.

For experiment [3], the system named is Bac. fragilis (Koln). Kind of experiment: MIC in liquid BF medium. As to the method: as §1
Experiment [4] has as its system Mc. luteus ATCC 9341. Kind of experiment: MIC in liquid BF medium. On the procedure: as §1
In experiment [5] the test system is Ps. aeruginosa BC 19. Put plainly: MIC in liquid BF medium. On the procedure:
as §1

Experiment [6] relates to Mc. luteus 15957. Put plainly: MIC in liquid BF medium. As to the method:
as §1

Experiment [7] has as its system St. pneumoniae ATCC 6302. Kind of experiment: MIC in liquid BF medium. As to the method:
as §1

Experiment [8] relates to E. coli ATCC 11775. Put plainly: MIC in liquid BF medium. As to the method: as §1
The subject of experiment [9] is St. aureus E 88. Put plainly: MIC in liquid BF medium. On the procedure: as §1
Experiment [10] relates to Sc. faecalis ATCC 29212. Kind of experiment: MIC in liquid BF medium. On the procedure: as §1
Experiment [11] has as its system Sc. pyogenes ATCC 8668. Put plainly: MIC in liquid BF medium. On the procedure:
as §1

The subject of experiment [12] is Peptostreptococcus anaerobicus. Kind of experiment: MIC in liquid BF medium. On the procedure: as §1
Experiment [13] has as its system Cb. xerosis ATCC 9755. Kind of experiment: MIC in liquid BF medium. On the procedure: as §1
Experiment [14] deals with Bac. fragilis (Bonn). Put plainly: MIC in liquid BF medium. On the procedure:
as §1

The test system of experiment [15] is St. aureus SG 511. Put plainly: MIC in liquid BF medium. On the procedure: as §1

No end group written: not given here.

In general, MIC refers to the smallest concentration in the dilution series that meets the test's criterion for growth inhibition. In turn, “Epidermin (IASKFICTPGCAKTGSFNSYCC; cysteine pairing not given here; also: lantibiotic: post-translational modifications not placed; UniProt P08136 31-52, looked up) [known polycyclic lanthionine peptide antibiotic obtained by cultivating a strain of Staphylococcus epidermis; differs from gallidermin by one amino acid, reference compound]” gave an MIC in [1] of 0.25 µg/mL.

For “Gallidermin (IASKFLCTPGCAKTGSFNSYCC; cysteine pairing not given here; also: lantibiotic: post-translational modifications not placed; UniProt P21838 31-52, looked up) [polycyclic lanthionine peptide antibiotic produced by cultivation of Staphylococcus gallinarum (F16/P57) Tu 3928 (DSM 4616)]”, the MIC in [2] came to 4 µg/mL; in [3], 128 µg/mL; in [4] it was 0.25 µg/mL; in experiment [5], 128 µg/mL; in [6], 0.5 µg/mL; in experiment [7] it was 4 µg/mL. In addition, the MIC in [8] is 128 µg/mL; in experiment [9] it was 8 µg/mL; in [10], 64 µg/mL; in experiment [11], 1 µg/mL; in [12], 0.5 µg/mL; in [13], 1 µg/mL. The minimal inhibitory concentration (MIC) amounted to 128 µg/mL in [14], 4 µg/mL in [15] and 0.125 µg/mL in [1].

For the origin of these results see patent publication US5231013A, “Polycyclic peptide antibiotic gallidermin” (priority 1988, dated 1993).
